Structures can show the parent of a compound that is named as a salt. Where two headings read alike, the source gives them in different places.
Legend:
FU100 [1] = details: for Lowest Positive Dose: lowest dose tested giving a positive response; for response in the 5-FU Assay (in words): text and figure legend (FIG. 6), with or without S9
Experimental: Briefly, in order to practice the disclosed mutation assay one-ml aliquots of exponentially growing bacteria are exposed to the test agent for two hours in the presence and absence of a metabolic activation system, such as a mammalian (i.e., rat, hamster or human) liver homogenate (S9-fraction or liver microsomal enzymes). The aliquots are then diluted, allowed to grow for 3 hours, and assessed for treatment-related toxicity/inhibition by optical density. The cultures are subsequently diluted a second time and grown overnight to permit full recovery from toxicity and to allow expression of the FU^R phenotype. Samples of the cultures are then plated in 384-well microtiter dishes in the presence of 2 μg/ml 5-FU and the pH-sensitive indicator bromcresol purple. Three days later positive wells containing FU^R colonies are detected by their yellow color and enumerated. Treated cultures are then compared to control plates to determine genotoxic activity.
For each mutation experiment, two frozen 1-ml aliquots of FU100 were quickly thawed in a 37° C. water bath, pelleted by centrifugation, washed to remove the DMSO, and suspended in 35 mL of MinE medium. The culture was shaken for approximately 1 hour at 37° C. until the optical density at 600 nm (OD600) reached the target density of 0.3. A 16-ml aliquot of culture was added to each of two 50-ml tubes containing 3.6 ml of a NADPH-generating system (5.6 mM glucose-6-phosphate, 4.5 mM NADP+, 5 mM sucrose, 110 mM Na2HPO4, 37 mM KCl, and 9 mM MgCl2) and either 0.4 ml rat liver S-9 or an equal volume of sodium phosphate buffer. Aliquots of these mixtures were distributed into three 12-well cluster dishes (one for exposure with S-9, one for exposure without S-9, one for controls with and without S-9), and exposed to test compounds as 1-ml aliquots for 2 hour as outlined in FIG. 1.
Following treatment, the 1-ml aliquots were transferred into 9 ml of warm MinE medium in a 50 ml tube and incubated at 37° C. on a rotary wheel for 3 hours. Next, 20 ml of medium was added to each culture tube and 0.25 ml aliquots were transferred to a 96-well plate for OD600 measurements to assess toxicity (OD Day 1). […] Bulk cultures were then incubated overnight in the dark at 30° C. to permit recovery from toxicity and to allow time for the test cells to express the FU^R phenotype.
The next day, OD600 was again assessed to adjust cell number plated on 5-FU plates (OD Day 2; 100 μl of the culture diluted with 150 μl MinE medium for OD600 measurements). For plating, a 35 μl aliquot of each culture was added to 31.4 mL of MinE medium with 2 μg/ml of 5-FU and 10 μg/ml of bromcresol purple. The mixture was then dispersed into a 384-well plate (75 μl/well) and placed at 37° C. for 3 days in a humidified incubator.
The data obtained for both survival (OD day 1), relative number of cells plated (OD day 2), and number of positive wells were imported into an Excel template.
Table 8 summarizes the criteria for positive result in 5-FU assay using the FU100 tester strain described and claimed herein. […] A positive compound was defined when two or more doses met the aforementioned criteria.

FU100 [2] = test system: FU100
Salmonella = details: cited from earlier work
[3] = in the presence of S9 activation (+), FU100, 2 h exposure
[4] = in the presence of S9 activation (+)
[5] = without S9 activation (−), FU100, 2 h exposure
[6] = in the presence of S9 activation (+), approximate, first dose with greater than 50% survival by optical density on Day 1
[7] = without S9 activation (−), approximate, first dose with greater than 50% survival by optical density on Day 1
[8] = NTP Results Report 12 Aug. 2002 or cited reference (footnotes f, g, i, j)

Structure (SMILES)	Results (5-FU assay) (FU100 [1]; [3])	Lowest Positive Dose (FU100 [1]; [4])	Results (5-FU assay) (FU100 [1]; [5])	Lowest Positive Dose (FU100 [1]; without S9 activation (−))	LD50 (FU100 [2]; [6])	LD50 (FU100 [2]; [7])	NTP Results: SA = Salmonella (Salmonella; [8])	response in the 5-FU Assay (in words) (FU100 [1])	plating efficiency of FU^R mutants in treated culture at the end of day 1 (FU100 [1]; before overnight grow back was introduced)	Results (5-FU assay) (FU100 [1])	LD50 (FU100 [2]; Salmonella typhimurium)	NTP Results: SA = Salmonella (Salmonella)
O=[N+]([O-])c1ccc2c(c1)Cc1ccccc1-2 [2-Nitrofluorene]	Pos	0.6 µg/mL	Pos	0.02 µg/mL	>2 µg/mL	>1 µg/mL						
O=[N+]([O-])c1cc[n+]([O-])c2ccccc12 [4-Nitroquinoline N-oxide]					>0.5 µg/mL	>0.5 µg/mL						
O=Cc1ccccc1 [Benzaldehyde]	Neg		Neg		>150 µg/mL	>150 µg/mL						
c1ccc2c(c1)cc1ccc3cccc4ccc2c1c34 [Benzo[a]pyrene]					>20 µg/mL	>20 µg/mL						
O=c1ccc2ccccc2o1 [Coumarin]	Pos	50 µg/mL	Neg		>150 µg/mL	>900 µg/mL						
CC(C)(OOC(C)(C)c1ccccc1)c1ccccc1 [Dicumyl peroxide]	Neg		Neg		>5000 µg/mL	>5000 µg/mL	(SA−)					
COc1ccc2nc3cc(Cl)ccc3c(NCCCNCCCl)c2c1 [ICR-191]	Pos	3.2 µg/mL	Pos	0.2 µg/mL	>10 µg/mL	>3 µg/mL	(SA+)	positive compounds in non-toxic concentrations				
C[C@H](CCC(=O)O)[C@H]1CC[C@H]2[C@@H]3CC[C@@H]4C[C@H](O)CC[C@]4(C)[C@H]3CC[C@]12C [Lithocholic Acid]	Neg		Neg		>2000 µg/mL	>2000 µg/mL						
COS(C)(=O)=O [Methyl Methanesulfonate]	Pos	10 µg/mL	Pos	0.6 µg/mL	>100 µg/mL	>100 µg/mL	(SA+)	positive compounds in non-toxic concentrations	significantly suppressed			
CN(N=O)C(N)=O [N-Nitroso-N-methylurea]	Pos	5.0 µg/mL	Pos	5.0 µg/mL	>90 µg/mL	>90 µg/mL	(SA+)					
CCC1(c2ccccc2)C(=O)NC(=O)NC1=O [Phenobarbital]	Pos^w	1500 µg/mL	Pos^w	2800 µg/mL	>500 µg/mL	>500 µg/mL						
Nc1ccc2cc3ccc(N)cc3nc2c1 [Proflavine HCl]	Pos	0.1 µg/mL	Pos^w	16 µg/mL	>10 µg/mL	>10 µg/mL	(SA+)					
O=C1NS(=O)(=O)c2ccccc21 [Saccharin]										Neg	>5000 µg/mL	(SA−)
CCCCCCCCCCCCOS(=O)(=O)[O-].[Na+] [Sodium Dodecyl Sulfate]	Neg		Neg		>35 µg/mL	>20 µg/mL						
CC/C(=C(\c1ccccc1)c1ccc(OCCN(C)C)cc1)c1ccccc1 [Tamoxifen]					>15 µg/mL	>3 µg/mL				Neg		
Cc1cccc(Nc2cc(Cl)nc(SCC(=O)O)n2)c1C [Wyeth 14,643]	Neg		Neg		>900 µg/mL	>900 µg/mL	(SA−)					
